Results reported in patent US10981879B2, “Thioether triazolopyridine and triazolopyrimidine inhibitors of myeloperoxidase” (BRISTOL-MYERS SQUIBB COMPANY, priority 2014, dated 2021).

Assays:
Assay type in all cases: biochemical
myeloperoxidase (MPO) [1] = target: T1, myeloperoxidase (MPO) (Homo sapiens (Human), UniProt P05164); assay: MPO chlorination assay (APF)
Procedure, shortened: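 Human MPO (200 pM) with 120 mM NaCl preincubated with inhibitor 10 minutes at rt in 100 mM KPi pH 7.4. Reaction started with APF mixture containing 10 μM H2O2; fluorescein fluorescence (ex 485/em 535 nm) read kinetically 3 minutes. IC50 from slopes of linear kinetic portion, fitted with a four-parameter Hill equation.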

myeloperoxidase (MPO) [2] = target: T1, myeloperoxidase (MPO); assay: MPO peroxidation assay (Amplex Red); conditions: Table 1
Description: MPO peroxidation activity was measured in 100 mM KPi (pH 7.4) by utilizing the non-fluorescent reagent Amplex Red (Invitrogen catalog #A12222) which can be oxidized to the highly fluorescent resorufin. Amplex Red is oxidized by the peroxidase action of MPO to resorufin. Reactions were carried out in 50 μL total volume by adding a 25 μL mixture of 200 pM myeloperoxidase and 40 nM H2O2 (Sigma #349887) to 100 nL inhibitor in 100% DMSO in a 384 well Perkin Elmer Optiplate. Enzyme and compound were preincubated for ten minutes at rt.
After the ten minute preincubation, 25 μL of an Amplex Red mixture containing 200 μM Amplex Red and 10 mM H2O2 was added to the plate. Kinetic determinations were carried out immediately on a Perkin Elmer Envision (15 minute kinetic read, Ex: 535 nm, Em: 590 nm).
IC50 values were calculated by determining the slope of the linear portion of the kinetic trace (180-540 secs), and using that calculated slope to determine % inhibition occurring at each concentration of inhibitor using the following equation:
[formula] where A=minimal Y value (activity level of inhibited sample), B=maximal Y value (activity level of uninhibited sample), C=Log IC50, D=Hill Slope, x=concentration of inhibitor. MPO Chlorination Assay

[3] = target: eosinophil peroxidase (EPX) (Homo sapiens (Human), UniProt P11678); assay: EPX bromination assay
Sequence of eosinophil peroxidase (EPX) (P11678 251-715): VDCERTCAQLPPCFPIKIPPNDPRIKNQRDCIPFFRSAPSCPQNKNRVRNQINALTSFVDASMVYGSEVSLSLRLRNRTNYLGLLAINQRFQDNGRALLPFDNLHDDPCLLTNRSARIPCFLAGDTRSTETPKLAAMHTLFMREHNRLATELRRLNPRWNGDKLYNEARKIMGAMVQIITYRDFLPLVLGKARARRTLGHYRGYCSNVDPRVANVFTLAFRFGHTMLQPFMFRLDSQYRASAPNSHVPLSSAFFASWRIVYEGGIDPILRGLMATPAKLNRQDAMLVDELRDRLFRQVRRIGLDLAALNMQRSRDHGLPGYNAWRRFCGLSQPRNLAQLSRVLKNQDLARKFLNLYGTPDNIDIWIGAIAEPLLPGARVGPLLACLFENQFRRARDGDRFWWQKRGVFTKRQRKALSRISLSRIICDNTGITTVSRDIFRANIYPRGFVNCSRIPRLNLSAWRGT
Sequence of eosinophil peroxidase (EPX) (P11678 140-250): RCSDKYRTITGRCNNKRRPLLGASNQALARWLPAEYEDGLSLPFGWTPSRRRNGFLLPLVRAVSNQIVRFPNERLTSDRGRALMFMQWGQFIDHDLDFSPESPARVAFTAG
Description: EPX bromination activity was measured in 100 mM KPi (pH 7.4) by monitoring the H2O2 catalyzed formation of 3-bromo tyrosine from tyrosine and potassium bromide. A 50 μl mixture of 0.6 μM EPX (Lee Biosolutions Cat #342-60) was added to 100 nL inhibitor in 100% DMSO in a 384 well REMP plate. Enzyme and compound were preincubated for ten minutes at rt.
After the ten minute preincubation of enzyme and inhibitor, 25 μL of a mixture containing 400 μM tyrosine and 1200 μM potassium bromide was added to the plate containing enzyme and inhibitor, followed by the addition of 25 μl of 20 μM H2O2. The reaction was allowed to proceed for 15 minutes, at which time it was quenched with 10 μL of 20% TCA. The final concentrations of all components were 0.3 μM EPX, 100 μM tyrosine, […], 5 μM H2O2, 0.1% DMSO, 2.0% TCA.
IC50 values were determined by determining the peak areas of 3-bromotyrosine present at the end of the 15 minute reaction and fitting the data to:
[formula] where A=minimal Y value (activity level of inhibited sample), B=maximal Y value (activity level of uninhibited sample), C=Log IC50, D=Hill Slope, x=concentration of inhibitor.
Reversed-phase analysis was performed on a Waters Acquity Ultra Performance LC system using an Acquity UPLC BEH C18 […], 2.1×50 mm analytical column. The column was maintained at 60° C. Samples were eluted using a gradient of 0%-100% B over 2.5 minutes, followed by equilibration with 100% A for 1 minute where A consisted of 0.1% TFA and B consisted of 90% MeOH/0.1% TFA at a flow rate of 0.6 mL/min. The retention time of 3-bromo tyrosine was 1.22 min.

[4] = MPO chlorination assay (APF), Table 1, read-out: APF IC50
[5] = MPO chlorination assay, ranges given, read-out: MPO chlorination assay IC50

T1 sequence (P05164 49-745): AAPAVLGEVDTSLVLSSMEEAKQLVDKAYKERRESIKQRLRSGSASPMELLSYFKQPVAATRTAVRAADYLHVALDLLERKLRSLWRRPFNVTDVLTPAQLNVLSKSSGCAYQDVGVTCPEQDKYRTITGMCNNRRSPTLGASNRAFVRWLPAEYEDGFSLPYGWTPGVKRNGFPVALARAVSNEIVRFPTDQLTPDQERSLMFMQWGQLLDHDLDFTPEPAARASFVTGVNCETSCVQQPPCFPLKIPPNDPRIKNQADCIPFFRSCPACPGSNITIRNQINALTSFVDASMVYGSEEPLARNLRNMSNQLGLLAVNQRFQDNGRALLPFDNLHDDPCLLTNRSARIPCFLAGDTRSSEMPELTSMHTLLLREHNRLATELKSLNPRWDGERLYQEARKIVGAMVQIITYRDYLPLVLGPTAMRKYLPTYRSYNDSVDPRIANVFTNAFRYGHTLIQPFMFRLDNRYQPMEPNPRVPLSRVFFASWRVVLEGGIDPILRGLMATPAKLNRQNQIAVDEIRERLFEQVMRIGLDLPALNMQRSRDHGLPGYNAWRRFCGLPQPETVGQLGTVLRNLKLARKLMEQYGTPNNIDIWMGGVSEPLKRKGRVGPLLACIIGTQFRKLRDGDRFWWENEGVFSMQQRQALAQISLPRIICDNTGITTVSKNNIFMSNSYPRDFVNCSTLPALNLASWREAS

| Structure (SMILES) | IC50 (myeloperoxidase (MPO) [1]; [4]) | IC50 (myeloperoxidase (MPO) [2]) | IC50 [3] | IC50 (myeloperoxidase (MPO) [1]; [5]) |
| --- | --- | --- | --- | --- |
| CC(Sc1cc(N)nc2[nH]nnc12)c1ccccc1 (stereo not drawn) [Example 2, 7-((1-phenylethyl)thio)-3H-[1,2,3]triazolo[4,5-b]pyridin-5-amine] | 10 nM | 10 nM | 1 nM |  |
| Nc1cc(SCc2ccc(OC(F)(F)F)cc2)c2nn[nH]c2n1 [Example 7, 7-((4-(trifluoromethoxy)benzyl)thio)-3H-[1,2,3] triazolo[4,5-b]pyridin-5-amine] |  |  | 20 nM | ≤ 60 nM |
| Nc1cc(SCc2c(Cl)cccc2Cl)c2nn[nH]c2n1 [Example 11, 7-((2,6-Dichlorobenzyl)thio)-3H-[1,2,3]triazolo[4,5-b]pyridin-5-amine] |  |  | 2 nM | ≤ 60 nM |
| Cn1ncc2c(CSc3cc(N)nc4[nH]nnc34)cccc21 [Example 51, 7-(((1-methyl-1H-indazol-4-yl)methyl)thio)-3H-[1,2,3] triazolo[4,5-b]pyridin-5-amine] |  |  | 6 nM | 60 to 200 nM |
| CS(=O)(=O)c1ccc(CSc2cc(N)nc3[nH]nnc23)c(Cl)c1 [Example 104, 7-((2-chloro-4-(methylsulfonyl)benzyl)thio)-3H-[1,2,3]triazolo[4,5-b]pyridin-5-amine] | 90 nM | 10 nM |  |  |
| Nc1cc(SCc2cn(-c3ccccc3)nc2C(F)(F)F)c2nn[nH]c2n1 [Example 113, 7-(((1-phenyl-3-(trifluoromethyl)-1H-pyrazol-4-yl)methyl)thio)-3H-[1,2,3]triazolo[4,5-b] pyridin-5-amine] | 10 nM | 20 nM |  |  |
| Nc1cc(SCc2cnn(C3CCCCC3)c2C(F)(F)F)c2nn[nH]c2n1 [Example 116, 7-(((1-cyclohexyl-5-(trifluoromethyl)-1H-pyrazol-4-yl)methyl)thio)-3H-[1,2,3]triazolo[4,5-b] pyridin-5-amine] | 530 nM | 100 nM |  |  |
| Nc1cc(SC(CO)c2ccccc2)c2nn[nH]c2n1 (stereo not drawn) [Example 126, 2-((5-Amino-3H-[1,2,3]triazolo[4,5-b]pyridin-7-yl)thio)-2-phenylethanol] | 80 nM | 20 nM |  |  |
| Nc1cc(SCc2cn(-c3ccc(N4CCCC4)nc3)nc2C(F)(F)F)c2nn[nH]c2n1 [Example 139] | 10 nM | 170 nM |  |  |
| Nc1cc(SCc2cn(-c3cccnn3)nc2C(F)F)c2nn[nH]c2n1 [Example 144] | 80 nM | 40 nM |  |  |
| Nc1cc(SCc2cn(-c3cnccn3)nc2C(F)F)c2nn[nH]c2n1 [Example 145] | 80 nM | 30 nM |  |  |
| CCn1ncc(CSc2nc(N)nc3[nH]nnc23)c1C(F)(F)F [Example 164, 7-(((1-ethyl-5-(trifluoromethyl)-1H-pyrazol-4-yl)methyl)thio)-3H-[1,2,3]triazolo[4,5-d] pyrimidin-5-amine] | 770 nM | 220 nM |  |  |
| Nc1nc(SCc2ccccc2CN2CCCC2)c2nn[nH]c2n1 [Example 166, 7-((2-(pyrrolidin-1-ylmethyl)benzyl)thio)-3H-[1,2,3]triazolo[4,5-d] pyrimidin-5-amine] | 570 nM | 790 nM |  |  |
